Laboratory results taken from ChEMBL document CHEMBL1201862, “PubChem BioAssay data set” (2004).
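Assay format: 96-well plates, 48-hour exposure. GI50 is the concentration that inhibits growth by half.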 Activity calls are given as the source filed them. No stated cut-off is given here; in the data, active = GI50 up to about 1.1 µM and inactive = higher.

Columns and labels:
Test in all cases: growth of human tumour cells (NCI), 48 h
[1] = test system: 786-0
[2] = test system: A498
[3] = test system: A549
[4] = test system: ACHN
[5] = test system: BT-549
[6] = test system: CAKI-1
[7] = test system: CCRF-CEM
[8] = test system: COLO 205
[9] = test system: DLD-1
[10] = test system: DMS-114
[11] = test system: DMS-273
[12] = test system: DU-145
[13] = test system: EKVX
[14] = test system: HCC 2998
[15] = test system: HCT-116
[16] = test system: HCT-15
[17] = test system: HL-60
[18] = test system: HOP-18
[19] = test system: HOP-62
[20] = test system: HOP-92
[21] = test system: HT-29
[22] = test system: Hs-578T
[23] = test system: IGROV-1
[24] = test system: K562
[25] = test system: KM-20L2
[26] = test system: KM12
[27] = test system: LOX IMVI
[28] = test system: LXFL 529
[29] = test system: M14
[30] = test system: M19-MEL
[31] = test system: MCF7
[32] = test system: MDA-MB-231
[33] = test system: MDA-MB-435
[34] = test system: MDA-N
[35] = test system: MOLT-4
[36] = test system: Malme-3M
[37] = test system: NCI-H226
[38] = test system: NCI-H23
[39] = test system: NCI-H460
[40] = test system: NCI-H522
[41] = test system: NCI/ADR-RES
[42] = test system: OVCAR-3
[43] = test system: OVCAR-4
[44] = test system: OVCAR-5
[45] = test system: OVCAR-8
[46] = test system: PC-3
[47] = test system: RPMI-8226
[48] = test system: RXF 393
[49] = test system: RXF 631
[50] = test system: SF-268
[51] = test system: SF-295
[52] = test system: SF-539
[53] = test system: SK-MEL-28
[54] = test system: SK-MEL-2
[55] = test system: SK-MEL-5
[56] = test system: SK-OV-3
[57] = test system: SN12C
[58] = test system: SNB-19
[59] = test system: SNB-75
[60] = test system: SNB-78
[61] = test system: SR
[62] = test system: SW-620
[63] = test system: T47D
[64] = test system: TK-10
[65] = test system: U-251
[66] = test system: UACC-257
[67] = test system: UACC-62
[68] = test system: UO-31
[69] = test system: XF498

CCOC(=O)c1oc2ccc([N+](=O)[O-])c3c2c1CCC3
GI50 [1]: 25.6 µM (inactive)
GI50 [2]: 32.7 µM (inactive)
GI50 [3]: > 100 µM (inactive)
GI50 [4]: 58.3 µM (inactive)
GI50 [5]: 46.5 µM (inactive)
GI50 [6]: 61.4 µM (inactive)
GI50 [7]: > 95.1 µM (inactive)
GI50 [8]: > 85.1 µM (inactive)
GI50 [9]: > 100 µM (inactive)
GI50 [10]: 36.9 µM (inactive)
GI50 [11]: 58.3 µM (inactive)
GI50 [12]: > 100 µM (inactive)
GI50 [13]: 73.6 µM (inactive)
GI50 [14]: > 87.9 µM (inactive)
GI50 [15]: 51.1 µM (inactive)
GI50 [16]: 97.9 µM
GI50 [17]: > 93.8 µM (inactive)
GI50 [18]: 6.55 µM (inactive)
GI50 [19]: 24.3 µM (inactive)
GI50 [20]: 17.4 µM (inactive)
GI50 [21]: > 100 µM (inactive)
GI50 [22]: 29.2 µM (inactive)
GI50 [23]: 57.9 µM (inactive)
GI50 [24]: > 69.7 µM (inactive)
GI50 [25]: > 100 µM (inactive)
GI50 [26]: > 79.3 µM (inactive)
GI50 [27]: 66.5 µM (inactive)
GI50 [28]: > 100 µM (inactive)
GI50 [29]: > 86.3 µM (inactive)
GI50 [30]: > 100 µM (inactive)
GI50 [31]: > 76.6 µM (inactive)
GI50 [32]: 36.5 µM (inactive)
GI50 [33]: > 39.3 µM (inactive)
GI50 [34]: > 100 µM (inactive)
GI50 [35]: > 100 µM (inactive)
GI50 [36]: > 63.4 µM (inactive)
GI50 [37]: > 88.7 µM (inactive)
GI50 [38]: 61.4 µM (inactive)
GI50 [39]: > 100 µM (inactive)
GI50 [40]: 35.2 µM (inactive)
GI50 [41]: 64.9 µM (inactive)
GI50 [42]: > 100 µM (inactive)
GI50 [43]: > 100 µM (inactive)
GI50 [44]: > 92 µM (inactive)
GI50 [45]: 82.4 µM (inactive)
GI50 [46]: > 100 µM (inactive)
GI50 [47]: > 100 µM (inactive)
GI50 [48]: 26 µM (inactive)
GI50 [49]: 37.2 µM (inactive)
GI50 [50]: 27.2 µM (inactive)
GI50 [51]: 23.9 µM (inactive)
GI50 [52]: 19 µM (inactive)
GI50 [53]: > 82.4 µM (inactive)
GI50 [54]: 47.1 µM (inactive)
GI50 [55]: 69.7 µM (inactive)
GI50 [56]: 9.89 µM (inactive)
GI50 [57]: > 84.3 µM (inactive)
GI50 [58]: 34.7 µM (inactive)
GI50 [59]: 14 µM (inactive)
GI50 [60]: 34.8 µM (inactive)
GI50 [61]: > 100 µM (inactive)
GI50 [62]: > 90.8 µM (inactive)
GI50 [63]: > 31.6 µM (inactive)
GI50 [64]: 47.6 µM (inactive)
GI50 [65]: 29.9 µM (inactive)
GI50 [66]: > 82 µM (inactive)
GI50 [67]: 13.8 µM (inactive)
GI50 [68]: 66.7 µM (inactive)
GI50 [69]: 20.7 µM (inactive)

C/C(=N\N=C(/[SeH])N1CC2CCC(CC2)C1)c1ccccn1
GI50 [1]: 0.211 µM (active)
GI50 [2]: 0.196 µM (active)
GI50 [3]: 0.0614 µM (active)
GI50 [4]: 0.215 µM (active)
GI50 [5]: 0.182 µM (active)
GI50 [6]: 0.293 µM (active)
GI50 [7]: 0.0111 µM (active)
GI50 [8]: < 0.01 µM (active)
GI50 [9]: < 0.01 µM (active)
GI50 [10]: < 0.01 µM (active)
GI50 [11]: 0.0136 µM (active)
GI50 [12]: 0.927 µM (active)
GI50 [13]: 0.0914 µM (active)
GI50 [14]: 0.243 µM (active)
GI50 [15]: < 0.01 µM (active)
GI50 [16]: 0.0147 µM
GI50 [17]: 0.0166 µM (active)
GI50 [18]: 0.294 µM (active)
GI50 [19]: 0.341 µM (active)
GI50 [20]: 0.169 µM (active)
GI50 [21]: < 0.01 µM (active)
GI50 [22]: 0.198 µM (active)
GI50 [23]: 0.0169 µM (active)
GI50 [24]: < 0.01 µM (active)
GI50 [25]: < 0.01 µM (active)
GI50 [26]: 0.094 µM (active)
GI50 [27]: 0.0244 µM (active)
GI50 [28]: < 0.01 µM (active)
GI50 [29]: 0.0255 µM (active)
GI50 [30]: 0.0449 µM (active)
GI50 [31]: < 0.01 µM (active)
GI50 [32]: 0.115 µM (active)
GI50 [33]: 0.119 µM (active)
GI50 [34]: 0.226 µM (active)
GI50 [35]: 0.014 µM (active)
GI50 [36]: 0.0506 µM (active)
GI50 [37]: 0.43 µM (active)
GI50 [38]: 0.052 µM (active)
GI50 [39]: 0.0568 µM (active)
GI50 [40]: 0.161 µM (active)
GI50 [41]: < 0.01 µM (active)
GI50 [42]: 0.0222 µM (active)
GI50 [43]: 0.03 µM (active)
GI50 [44]: 0.179 µM (active)
GI50 [45]: 0.0137 µM (active)
GI50 [46]: 0.0647 µM (active)
GI50 [47]: < 0.01 µM (active)
GI50 [48]: 0.0291 µM (active)
GI50 [49]: 0.4 µM (active)
GI50 [50]: 0.161 µM (active)
GI50 [51]: 0.0673 µM (active)
GI50 [52]: 0.251 µM (active)
GI50 [53]: 0.0955 µM (active)
GI50 [54]: 0.156 µM (active)
GI50 [55]: 0.051 µM (active)
GI50 [56]: 0.356 µM (active)
GI50 [57]: 0.228 µM (active)
GI50 [58]: 0.2 µM (active)
GI50 [59]: 0.0871 µM (active)
GI50 [60]: 0.216 µM (active)
GI50 [61]: 0.0223 µM (active)
GI50 [62]: 0.0139 µM (active)
GI50 [63]: 0.0556 µM (active)
GI50 [64]: 0.762 µM (active)
GI50 [65]: 0.091 µM (active)
GI50 [66]: 0.0112 µM (active)
GI50 [67]: 0.0596 µM (active)
GI50 [68]: 0.217 µM (active)
GI50 [69]: < 0.01 µM (active)
